From paper PMC9226319, “Peripherally restricted transthyretin-based delivery system for probes and therapeutics avoiding opioid-related side effects” (Nature Communications, 2022)
Where “and” joins values, the source holds several entries; their conditions need not be identical. Equal values may be shown once. Entries after “also recorded” stand apart in the source; their conditions may differ. Read-outs that look alike come from different tables or passages of the source.

Key:
[1] = biological target: T1, kappa opioid receptor (rat) (Rattus norvegicus, UniProt P34975); assay: Rat kappa-opioid receptor (agonist radioligand [3H] U 69593) binding assay; conditions: for % Inhibition of Control Specific Binding: kappa-opioid receptor binding, replicates 1st/2nd
T1 construct: Eurofins Cerep (France)

[2] = test system: male Sprague-Dawley rats; conditions: rat, in vivo
[3] = Long-term stability assay of AG10-L2-Nal in PBS buffer; assay type: physicochemical; conditions: 100 µM, 37 °C, analysed weekly for four weeks
[4] = biological target: T2, delta-opioid receptor (human) (Homo sapiens, UniProt P41143); assay: Human delta-opioid receptor (agonist radioligand [3H]-DADLE) binding assay; conditions: for % Inhibition of Control Specific Binding: delta-opioid receptor binding, replicates 1st/2nd
T2 construct: Eurofins Cerep (France)

[5] = in vivo; conditions: male, Sprague Dawley, rat, iv, percentage CSF to plasma ratio
[6] = biological target: TTR in human serum (Homo sapiens, UniProt P02766); assay: TTR serum fluorescent probe exclusion (FPE) selectivity assay; assay type: binding; conditions: ligand 10 µM; for %FPE probe fluorescence: human serum, replicates
[7] = Serum stability assay of AG10-L2-Nal, mouse serum; assay type: in vitro ADME; conditions: 100 µM
Procedure: AG10-L2-Nal (100 μM) was incubated in sera, and the concentration remaining in respective media was determined at 0 and 48 h using HPLC. Bar graphs represent the mean of % compound remaining ± s.d. […] The plasma, brain tissue, and CSF were collected at 30 min after dosing. The ratio of the brain (ng/g) versus plasma concentration (ng/mL) is expressed as the percentage brain to plasma ratio. The ratio of the CSF (ng/mL) versus plasma concentration (ng/mL) is expressed as the percentage CSF to plasma ratio. Bar graphs show the respective mean (±s.d.) (n = 3 for each group). […] The concentration of the test compounds in plasma was determined at different time points and expressed as means ± s.d. of three biological replicates. Source data are provided as a Source Data file. […]
(Taiwan). The experimental procedure was performed as reported12. […]
Serum stability assay of AG10-L2-Nal. […] 100 μL samples were analyzed at 0 h, 24 h, and 48 h time intervals. […] The supernatant was analyzed using Waters™ XBridge C18 column (4.6x250 mm, 5μm) on Waters e2695 separations module HPLC system connected to a Waters 2998 photodiode array detector operating between the UV ranges of 200-400 nm. […]

[8] = rat; for plasma concentration: individual animals
[9] = in vivo; conditions: male, Sprague Dawley, rat, iv
[10] = in vitro; conditions: human, % Cell viability, replicates
[11] = test system: male Sprague-Dawley rats; assay: Gastrointestinal (GI) transit (charcoal meal) assays; assay type: in vivo, rat; conditions: rat, in vivo

T2 sequence (P41143 whole entry): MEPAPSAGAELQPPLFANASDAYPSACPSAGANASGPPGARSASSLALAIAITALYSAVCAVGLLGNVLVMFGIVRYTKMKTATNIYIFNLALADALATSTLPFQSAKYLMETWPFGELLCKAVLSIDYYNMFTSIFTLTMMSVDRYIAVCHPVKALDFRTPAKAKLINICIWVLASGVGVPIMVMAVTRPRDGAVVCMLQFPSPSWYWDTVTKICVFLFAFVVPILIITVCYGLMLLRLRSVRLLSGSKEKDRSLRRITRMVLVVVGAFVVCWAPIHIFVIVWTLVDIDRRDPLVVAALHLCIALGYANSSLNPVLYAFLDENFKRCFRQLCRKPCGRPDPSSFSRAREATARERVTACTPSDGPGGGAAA
T1 sequence (P34975 whole entry): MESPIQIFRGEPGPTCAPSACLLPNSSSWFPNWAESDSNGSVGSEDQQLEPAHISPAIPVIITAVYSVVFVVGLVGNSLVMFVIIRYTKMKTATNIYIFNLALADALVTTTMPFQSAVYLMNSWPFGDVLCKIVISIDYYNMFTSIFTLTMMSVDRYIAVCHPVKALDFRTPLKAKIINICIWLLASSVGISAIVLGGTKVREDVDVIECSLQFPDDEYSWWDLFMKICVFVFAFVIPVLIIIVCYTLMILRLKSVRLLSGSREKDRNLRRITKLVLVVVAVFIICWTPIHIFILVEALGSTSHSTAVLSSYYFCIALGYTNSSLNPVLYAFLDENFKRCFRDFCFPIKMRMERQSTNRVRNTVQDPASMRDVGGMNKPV

Compound: C=CCN1CC[C@]23c4c5ccc(O)c4O[C@H]2[C@@H](OCc2cn(CCNCCCCCCOc4cc(OCCCc6c(C)n[nH]c6C)cc(C(=O)O)c4)nn2)CC[C@@]3(O)[C@H]1C5 [AG10-L2-Nal]
- Ki ([1]; [3H] U 69593 displacement, read-out: binding affinity to kappa-opioid receptor (Ki)): 0.12 nM
- % Inhibition of Control Specific Binding ([1]; 1.0E-07 M): 98.2% and 98.6%
- % Inhibition of Control Specific Binding ([1]; 1.0E-08 M): 96.0%
- % Inhibition of Control Specific Binding ([1]; 1.0E-09 M): 83.2% and 82.8%
- % Inhibition of Control Specific Binding ([1]; 1.0E-10 M): 41.5% and 28.1%
- % Inhibition of Control Specific Binding ([1]; 5.0E-08 M): 98.3% and 97.6%
- plasma concentration ([2]; male, Sprague-Dawley): 7600 ± 500 nM
- Hot plate latency [2]: 60 s
- hot plate latency [2]: significant analgesia
- reversal of morphine-induced analgesia in the presence of AG10 [2]: no reversal of analgesia
- hot plate latency ([2]; iv): 60 s
- chemical stability in PBS buffer [3]: stable in buffer for a least one month; also recorded: chemically stable in phosphate buffer saline for at least one month at 37 °C
- Ki ([4]; [3H]-DADLE displacement, read-out: binding affinity to delta-opioid receptor (Ki)): 5.5 nM
- % Inhibition of Control Specific Binding ([4]; 1.0E-07 M): 91.6% and 94.2%
- % Inhibition of Control Specific Binding ([4]; 1.0E-08 M): 53.9% and 52.4%
- % Inhibition of Control Specific Binding ([4]; 1.0E-09 M): 14.6% and 12.2%
- % Inhibition of Control Specific Binding ([4]; 1.0E-10 M): 2.7% and 9.1%
- % Inhibition of Control Specific Binding ([4]; 5.0E-08 M): 83.7% and 87.4%
- Kp [5]: 0.01
- % TTR occupancy in human serum ([6]; FPE probe 3.6 µM, 3 h reading relative to probe alone, text mean ± s.d., table replicates): 62.5 ± 1.1% and 62.04% and 62.07% and 64.05% and 61.92%
- %FPE probe fluorescence ([6]; time 0.000 h): 0.000%
- %FPE probe fluorescence ([6]; time 0.083 h): 0.018% and 0.756% and -2.232% and -2.399%
- %FPE probe fluorescence ([6]; time 0.250 h): -1.158% and 2.209% and 1.458% and -0.885%
- %FPE probe fluorescence ([6]; time 0.500 h): 4.241% and 3.528% and 5.089% and 2.218%
- %FPE probe fluorescence ([6]; time 1.000 h): 6.503% and 10.611% and 13.590% and 14.148%
- %FPE probe fluorescence ([6]; time 1.250 h): 9.009% and 13.005% and 15.989% and 16.127%
- %FPE probe fluorescence ([6]; time 1.500 h): 13.314% and 18.863% and 18.262% and 17.288%
- %FPE probe fluorescence ([6]; time 1.750 h): 17.598% and 21.285% and 22.377% and 21.648%
- %FPE probe fluorescence ([6]; time 2.000 h): 21.919% and 25.680% and 23.861% and 25.075%
- %FPE probe fluorescence ([6]; time 2.250 h): 26.163% and 28.876% and 26.928% and 27.418%
- %FPE probe fluorescence ([6]; time 2.500 h): 26.877% and 32.466% and 29.919% and 30.633%
- %FPE probe fluorescence ([6]; time 2.750 h): 34.129% and 34.947% and 31.920% and 33.937%
- %FPE probe fluorescence ([6]; time 3.000 h): 37.964% and 37.926% and 35.954% and 38.083%
- %FPE probe fluorescence ([6]; time 3.500 h): 44.335% and 44.718% and 41.995% and 45.800%
- %FPE probe fluorescence ([6]; time 3.750 h): 47.041% and 46.124% and 44.395% and 46.344%
- %FPE probe fluorescence ([6]; time 4.000 h): 49.775% and 49.574% and 47.863% and 50.648%
- %FPE probe fluorescence ([6]; time 4.250 h): 49.252% and 50.428% and 49.751% and 51.967%
- %FPE probe fluorescence ([6]; time 4.500 h): 53.631% and 53.865% and 52.939% and 52.730%
- %FPE probe fluorescence ([6]; time 4.750 h): 56.220% and 54.908% and 55.174% and 55.874%
- %FPE probe fluorescence ([6]; time 5.000 h): 57.139% and 56.055% and 53.820% and 57.315%
- %FPE probe fluorescence ([6]; time 5.250 h): 59.200% and 60.014% and 56.004% and 59.143%
- %FPE probe fluorescence ([6]; time 5.500 h): 60.336% and 59.246% and 59.233% and 60.795%
- %FPE probe fluorescence ([6]; time 5.750 h): 61.971% and 60.994% and 58.022% and 62.173%
- %FPE probe fluorescence ([6]; time 6.000 h): 64.344% and 63.419% and 61.650% and 63.934%
- % compound remaining in mouse serum ([7]; 0 h, replicates): 98.29% and 100.51% and 101.20%
- % compound remaining in mouse serum ([7]; 37 °C, 48 h, table replicates): 100% and 99.98% and 100.20% and 102.73%
- fold higher AUCinf than naloxegol ([8]; IV 4.84 µmol/kg): ~23 fold
- fold higher AUCinf than naloxone ([8]; IV 4.84 µmol/kg): ~12 fold
- fold increase in half-life compared to naloxegol ([8]; IV 4.84 µmol/kg): 3.5 fold
- fold increase in half-life compared to naloxone ([8]; IV 4.84 µmol/kg): 7 fold
- plasma concentration ([8]; IV 4.84 µmol/kg, 0.03 h): 57263.9 nM and 57506.1 nM
- plasma concentration ([8]; IV 4.84 µmol/kg, 0.5 h): 2941.9 nM and 1319.6 nM and 2239.7 nM
- plasma concentration ([8]; IV 4.84 µmol/kg, 1 h): 296.6 nM and 441.9 nM
- plasma concentration ([8]; IV 4.84 µmol/kg, 2 h): 155 nM and 181.6 nM
- plasma concentration ([8]; IV 4.84 µmol/kg, 4 h): 92.9 nM and 28.6 nM and 125.9 nM
- plasma concentration ([8]; IV 4.84 µmol/kg, 6 h): 75.2 nM and 37 nM and 51.6 nM
- plasma concentration ([8]; IV 4.84 µmol/kg, 8 h): 23 nM and 56.2 nM and 25.7 nM
- plasma concentration ([8]; IV 4.84 µmol/kg, 12 h): 14.4 nM and 12 nM
- plasma concentration ([8]; IV 4.84 µmol/kg, 24 h): 3.4 nM and 7.2 nM and 2.7 nM
- k ([8]; single IV bolus 4.84 µmol/kg): 0.12 ± 0.02 h⁻¹
- AUC(0-inf) ([9]; 4.84 umol/kg): 16.9 ± 1.09 µM·h
- Vd ([9]; 4.84 umol/kg): 0.12 ± 0.02 L/kg
- clearance ([9]; 4.84 umol/kg): 4.83 mL/min/kg
- half-life ([9]; 4.84 umol/kg): 5.98 ± 0.81 h
- concentration at 0.03 h ([9]; 4.84 µmol/kg, plasma concentration, IV 4.84 µmol/kg, 0.03 h, individual animals): 48800 nM
- concentration at 1 h ([9]; 4.84 µmol/kg, plasma concentration, IV 4.84 µmol/kg, 1 h, individual animals): 295 nM
- concentration at 2 h ([9]; 4.84 µmol/kg, plasma concentration, IV 4.84 µmol/kg, 2 h, individual animals): 234 nM
- concentration at 12 h ([9]; 4.84 µmol/kg, plasma concentration, IV 4.84 µmol/kg, 12 h, individual animals): 9.6 nM
- viability at 72 h, 10 µM ([10]; 10 μM): 102%
- viability at 72 h, 100 µM ([10]; 100 μM): 112%
- GI transit 2.5h as % of saline group [11]: 45.3% and 46.0% and 49.8% and 55.5% and 53.6% and 48.3%
- reversal of OIC in the presence of AG10 [11]: no improvement in the OIC
- GI transit as % of vehicle group, compound alone ([11]; sc): 95.27% and 87.87% and 102.14% and 105.69% and 102.69%
